Results as given in patent US20050261332A1, “Sulfonamides and uses thereof” (priority 2004, published 2005).

The molecules below were run against T1, GHS-R (Homo sapiens, UniProt Q92847) (assay: GHS-R competition binding assay (Ki of GHS-R antagonizing compounds)).
T1 construct: expressed in transfected cells; host or cells: COS-7 cells
Procedure: One exemplary binding assay is as follows: GHS-R expressing COS-7 cells cultured at a density of 1×10^5 cells per well so that binding is assayed in the range of about 5-8 % binding of the radioactive ligand. For example, the cells can express an endogenous nucleic acid encoding GHS-R or an exogenous nucleic acid encoding GHS-R. Cells transfected with an exogenous nucleic acid encoding GHS-R can be used, e.g., two days, after transfection. Competition binding experiments are performed for 3 hours at 4° C. using 25 pM of ^125I-ghrelin in 0.5 ml of 50 mM HEPES buffer, pH 7.4, supplemented with 1 mM CaCl2, 5 mM MgCl2, and 0.1% (w/v) bovine serum albumin, 40 mg/ml bacitracin. Non-specific binding can be determined as the binding in the presence of […] of unlabeled ghrelin. Cells are washed twice in 0.5 ml of ice-cold buffer and then lysed with 0.5-1 ml of lysis buffer (8 M Urea, 2% NP40 in 3 M acetic acid). After washing and lysis, the bound radioactivity is counted. Assays can be run in duplicate or triplicate, e.g., to provide statistical power.
Values of the dissociation and inhibition constants (Kd and Ki) can be estimated from competition binding experiments using the equation: Kd=IC50-L and Ki=IC50/(1+L/Kd), where L is the concentration of radioactive ligand. Bmax values can be estimated from competition binding experiments using the equation Bmax=B0 IC50/[ligand], where B0 is the specifically bound radioligand.

T1 sequence (Q92847 whole entry, species assumed): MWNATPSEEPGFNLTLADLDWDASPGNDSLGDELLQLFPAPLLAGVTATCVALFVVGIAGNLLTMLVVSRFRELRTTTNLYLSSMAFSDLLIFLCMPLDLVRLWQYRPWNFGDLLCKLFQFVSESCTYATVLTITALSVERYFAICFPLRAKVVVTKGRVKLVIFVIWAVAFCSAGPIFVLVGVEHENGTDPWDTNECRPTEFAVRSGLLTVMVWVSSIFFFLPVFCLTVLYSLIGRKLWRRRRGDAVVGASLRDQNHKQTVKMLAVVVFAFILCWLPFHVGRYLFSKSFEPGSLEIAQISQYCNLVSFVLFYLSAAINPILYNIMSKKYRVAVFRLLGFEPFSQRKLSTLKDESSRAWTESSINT

| SMILES | Ki |
| --- | --- |
| CCN(CC)CCCS(=O)(=O)N[C@H](COCc1ccccc1)C(=O)N1CCC2(CC1)CN(S(C)(=O)=O)c1ccccc12 [Compound 148, (R)-N-(3-(benzyloxy)-1-(1-(methylsulfonyl)spiro[indoline-3,4′-piperidine]-1′-yl)-1-oxopropan-2-yl)-3-(diethylamino)propane-1-sulfonamide] | 0.1 to 1 µM |
| CS(=O)(=O)N1CC2(CCN(C(=O)[C@@H](COCc3ccccc3)NS(=O)(=O)CCCNC3CC3)CC2)c2ccccc21 [Compound 150, (R)-N-(3-(benzyloxy)-1-(1-(methylsulfonyl)spiro[indoline-3,4′-piperidine]-1′-yl)-1-oxopropan-2-yl)-3-(cyclopropylamino)propane-1-sulfonamide] | > 1 µM |
| NC(=O)c1ccccc1-c1ccc(CNC(=O)[C@@H](COCc2ccccc2)NS(=O)(=O)CCCCl)cc1 [Compound 153, (R)-4′-{[3-Benzyloxy-2-(3-chloro-propane-1-sulfonylamino)-propionylamino]-methyl}-biphenyl-2-carboxylic acid amide] | > 1 µM |
| CCN(CC)CCCS(=O)(=O)N[C@H](COCc1ccccc1)C(=O)NCc1ccc(-c2ccccc2-c2nnn(C(C)(C)C)n2)cc1 [Compound 155, (R)-3-Benzyloxy-N-[2′-(2-tert-butyl-2H-tetrazol-5-yl)-biphenyl-4-ylmethyl]-2-(3-diethylamino-propane-1-sulfonylamino)-propionamide] | 0.1 to 1 µM |
| CCN(CC)CCCS(=O)(=O)N[C@H](COCc1ccccc1)C(=O)NCc1ccc(-c2ccccc2-c2nn[nH]n2)cc1 [Compound 156, (R)-3-Benzyloxy-2-(3-diethylamino-propane-1-sulfonylamino)-N-[2′-(2H-tetrazol-5-yl)-biphenyl-4-ylmethyl]-propionamide] | 0.1 to 1 µM |
| CN([C@H](COCc1ccccc1)C(=O)N1CCC2(CC1)CN(S(C)(=O)=O)c1ccccc12)S(=O)(=O)CCCCl [Compound 157, (R)-N-(3-(benzyloxy)-1-(1-(methylsulfonyl)spiro[indoline-3,4′-piperidine]-1′-yl)-1-oxopropan-2-yl)-3-chloro-N-methylpropane-1-sulfonamide] | 0.1 to 1 µM |
| CCN(CC)CCCS(=O)(=O)N[C@H](COCc1ccccc1)C(=O)NCc1ccc(-c2ccccc2C#N)cc1 [Compound 158, (R)-3-Benzyloxy-N-(2′-cyano-biphenyl-4-ylmethyl)-2-(3-diethylamino-propane-1-sulfonylamino)-propionamide] | < 0.1 µM |

Second part, the molecule after the results:

| Ki | SMILES |
| --- | --- |
| 0.1 to 1 µM | CN(C)CCCS(=O)(=O)N[C@H](COCc1ccccc1)C(=O)N1CCC2(CC1)CN(S(C)(=O)=O)c1ccccc12 [Compound 149, (R)-N-(3-(benzyloxy)-1-(1-(methylsulfonyl)spiro[indoline-3,4′-piperidine]-1′-yl)-1-oxopropan-2-yl)-3-(dimethylamino)propane-1-sulfonamide] |
| < 0.1 µM | CS(=O)(=O)N1CC2(CCN(C(=O)[C@@H](COCc3ccccc3)NS(=O)(=O)CCCN3CCCC3)CC2)c2ccccc21 [Compound 152, (R)-N-(3-(benzyloxy)-1-(1-(methylsulfonyl)spiro[indoline-3,4′-piperidine]-1′-yl)-1-oxopropan-2-yl)-3-(pyrrolidin-1-yl)propane-1-sulfonamide] |
| 0.1 to 1 µM | CCN(CC)CCCS(=O)(=O)N[C@H](COCc1ccccc1)C(=O)NCc1ccc(-c2ccccc2C(N)=O)cc1 [Compound 154, (R)-4′-{[3-Benzyloxy-2-(3-diethylamino-propane-1-sulfonylamino)-propionylamino]-methyl}-biphenyl-2-carboxylic acid amide] |
| 0.1 to 1 µM | COCCCS(=O)(=O)N[C@H](COCc1ccccc1)C(=O)N1CCC2(CC1)CN(S(C)(=O)=O)c1ccccc12 [Compound 159, (R)-N-(3-(benzyloxy)-1-(1-(methylsulfonyl)spiro[indoline-3,4′-piperidine]-1′-yl)-1-oxopropan-2-yl)-3-methoxypropane-1-sulfonamide] |
